# pEC50: −log10 of the molar value.
# Legend:
# [1] = Cell Titer-fluor cell activity assay in HCV-1b replicon cells (CC50); assay type: cell-based
# Experimental: (§1) The EC50 and CC50 values of anti-HCV compounds were determined by HCV genotype 1a (HCV-1a) and 1B (HCV-1b) stable transfer replication (replicon) cells. The source of genotype 1a replicon is H77 clones containing K1691R, K2040R and S2204I adaptive mutations. The source of genotype 1b replicon is Con1 clones containing E1202G, T1280I and K1846T adaptive mutations.
# (§2) HCV Replicon Cell Lines: HCV-1a and HCV-1b Cells
# (§3) The compound powder was dissolved in 100% DMSO. Then the compound was diluted 5 times with 6 points, and added into the cell plate with Echo liquid handler. Ensure the final concentration of DMSO was 0.5%. Each compound was tested in double holes. Maximum initial concentration was 100, 10 or 1 nM, 5 times dilution, 6 points.
# (§4) b) Cell Culture (HCV-1a or HCV-1b Replicon Cell):
# (§5) 1) absorbing the culture supernatant of the cell culture and washing the cells with 10 mL PBS.
# (§6) 2) adding preheated pancreatin to the washed cell culture flasks, rotating culture bottle to make the bottom of the culture bottle uniformly covered by pancreatin, then placed into 37° C., 5% CO2 incubator to digest.
# (§7) 3) suspending cells in each T150 culture flask with 10-15 mL culture medium, absorbing 0.1 mL liquid and diluting 2 times by trypan blue solution as counted.
# (§8) 4) diluting cells to 8×10^4/mL with the culture medium, adding the diluted cells into the compound-containing 96-well plate (Greiner, Cat.#655090) (100 μL/well, 8000 cells/well) with automatic liquid separator (Thermo Scientific). Then place into a 37° C., 5% CO2 incubator for 3 days. Cell control well: no compound, only containing 0.5% DMSO.
# 5) adding chemiluminescent substrate Cell Titer-fluor to the cell well, after incubation for 30 minutes, detecting the signal by chemiluminescence detection system Envison (Ex at 405 nm and read at 515 nm). The effect of the compounds on the activity of HCV replicon cells was analyzed according to the luminescence data, which was used to calculate the CC50 values.
# (§9) The EC50 or CC50 values were obtained by nonlinear fitting analysis on inhibition percentage (inh %) data with GraphPad Prism software.
# [2] = system: HCV genotype 1b (HCV-1b) replicon cells; experiment: HCV genotype 1b replicon luciferase assay (EC50); assay type: cell-based, hepatitis C virus genotype 1b (Con1 clone); conditions: 3 days, luciferase (Bright-Glo)
# Experimental: as §1
# (§10) HCV 1a (HCV-1a) and 1b (HCV-1b) gene subtype replicon system contains the related HCV gene subtype non structural protein gene, G418 resistance gene NEO and luciferase gene, which results in that HCV related protein and luciferase can be stably expressed in cells. By detecting the level of expression of luciferase gene, the level of HCV replication can be determined. Therefore, the system is used as a model for screening the activity of anti-HCV compound in vitro.
# as §2, §3, §4, §5, §6, §7, §8
# (§11) 6) then adding luciferase luminescence substrate Bright-Glo, after incubation for 5 minutes, detecting the luciferase activity by chemical luminescence detection system Envison (wavelength>700 nm); analyzing the anti-HCV inhibitory activity of the compounds according to luciferase data, which was used to calculate EC50 values.
# as §9
# [3] = system: HCV genotype 1a (HCV-1a) replicon cells; experiment: HCV genotype 1a replicon luciferase assay (EC50); assay type: cell-based, hepatitis C virus genotype 1a (H77 clone); conditions: 3 days, luciferase (Bright-Glo)
# Experimental: as §1, §10, §2, §3, §4, §5, §6, §7, §8, §11, §9
SMILES,CC50 at 3 days [1] [nM],"pEC50 ([2]; Hepatitis C virus, 72 h)","pEC50 ([3]; Hepatitis C virus, 72 h)",pEC50 [3],pEC50 [2]
COC(=O)N[C@H](C(=O)N1[C@H](c2ncc(-c3ccc(-c4ccc5cc(-c6cnc(C7CCCC[C@H]7C(=O)N(NC(=O)OC)C(C)C)[nH]6)ccc5c4)cc3)[nH]2)COC1(C)C)C(C)C (some centres unmarked) [AA_072],> 10,7.00 to 8.00,,,
COC(=O)N[C@H](C(=O)N1CCC[C@H]1c1ncc(-c2ccc(-c3ccc(-c4cnc(C5=C(C(=O)N(NC(=O)OC)C(C)C)CCCC5)[nH]4)cc3)cc2)[nH]1)C(C)C [AA_014],> 100,8.00 to 9.00,,,
COC(=O)NC(C(=O)N1CCCC1c1ncc(-c2ccc3cc(-c4cnc(C5CCCC[C@H]5C(=O)N(NC(=O)OC)C(C)C)[nH]4)ccc3c2)[nH]1)C1CCOC1 (some centres unmarked) [AA_078],> 10,7.00 to 8.00,,,
COC(=O)N[C@H](C(=O)N1CCC[C@H]1c1ncc(-c2ccc(-c3ccc(-c4cnc(C5CCCC[C@H]5C(=O)N(NC(=O)OC)C(C)C)[nH]4)cn3)cc2)[nH]1)C(C)C (some centres unmarked) [AA_108],> 10,8.00 to 9.00,,,
COC(=O)NN(C(=O)[C@H]1CCCCC1c1ncc(-c2ccc(-c3ccc4cc(-c5cnc(C6CCCC[C@H]6C(=O)N(NC(=O)OC)C(C)C)[nH]5)ccc4c3)cc2)[nH]1)C(C)C (some centres unmarked) [AA_074],> 10,7.00 to 8.00,,,
COC(=O)N[C@H](C(=O)N1CCC[C@H]1c1ncc(-c2ccc(-c3ccc(-c4cnc(C5CCCC[C@@H]5C(=O)N(NC(=O)OC)C(C)C)[nH]4)c(F)c3)cc2)[nH]1)C(C)C (some centres unmarked) [AA_118],> 10,8.00 to 9.00,,,
COC(=O)N[C@H](C(=O)N1CCC[C@H]1c1ncc(-c2ccc(-c3ccc4cc(-c5cnc(C6CCCC[C@H]6C(=O)N(NC(=O)OC)C(C)C)[nH]5)ccc4c3)cc2)[nH]1)C(C)C (some centres unmarked) [AA_071],> 10,8.00 to 9.00,,,
COC(=O)N[C@H](C(=O)N1CC2(C[C@H]1c1ncc(-c3ccc(-c4ccc5cc(-c6cnc(C7CCCC[C@H]7C(=O)N(NC(=O)OC)C(C)C)[nH]6)ccc5c4)cc3)[nH]1)OCCO2)C(C)C (some centres unmarked) [AA_073],> 10,8.00 to 9.00,,,
COC(=O)N[C@H](C(=O)N1CCC[C@H]1c1ncc(-c2ccc(-c3ccc(-c4cnc([C@@H]5[C@H]6CC[C@H](C6)[C@H]5C(=O)N[C@H](C(=O)OC)C(C)C)[nH]4)cc3)cc2)[nH]1)C(C)C [AA_282_ENDOA2],,10.00 to 12.00,8.00 to 9.00,,
COC(=O)N[C@H](C(=O)N1CCC[C@H]1c1ncc(-c2ccc(-c3ccc(-c4cnc([C@@H]5[C@H]6CC[C@H](C6)[C@H]5C(=O)NCc5ncc(C)[nH]5)[nH]4)cc3)cc2)[nH]1)C(C)C [AA_291_ENDOA2],,10.00 to 12.00,8.00 to 9.00,,
COC(=O)CNC(=O)C1(NC(=O)[C@@H]2C3CCC(C3)[C@H]2c2ncc(-c3ccc(-c4ccc(-c5cnc([C@@H]6CCCN6C(=O)[C@@H](NC(=O)OC)C(C)C)[nH]5)cc4)cc3)[nH]2)CCCCC1 (some centres unmarked) [AA_278],,9.00 to 10.00,7.00 to 8.00,,
COC(=O)N[C@H](C(=O)N1CCC[C@H]1c1ncc(-c2ccc(-c3ccc(-c4cnc([C@@H]5[C@H]6CC[C@H](C6)[C@H]5C(=O)NN5CC[C@H](C)C5=O)[nH]4)cc3)cc2)[nH]1)C(C)C [AA_295_ENDOA2_B],,9.00 to 10.00,7.00 to 8.00,,
COC(=O)N[C@H](C(=O)N1CCC[C@H]1c1ncc(-c2ccc(-c3ccc(-c4cnc([C@@H]5C6CCC(C6)[C@H]5C(=O)NCC(=O)NCC(F)F)[nH]4)cc3)cc2)[nH]1)C(C)C (some centres unmarked) [AA_277],,10.00 to 12.00,9.00 to 10.00,,
COC(=O)N[C@H](C(=O)N1CCC[C@H]1c1ncc(-c2ccc(-c3ccc(-c4cnc([C@@H]5C6CCC(C6)[C@H]5C(=O)N[C@@H](C(=O)NCC(F)F)C(C)C)[nH]4)cc3)cc2)[nH]1)C(C)C (some centres unmarked) [AA_276],,8.00 to 9.00,7.00 to 8.00,,
COC(=O)N[C@H](C(=O)N1CCC[C@H]1c1ncc(-c2ccc(-c3ccc(-c4cnc([C@@H]5[C@H]6CC[C@H](C6)[C@H]5C(=O)N(Cc5cccnc5)C(C)C)[nH]4)cc3)cc2)[nH]1)C(C)C [AA_285_ENDOA2],,10.00 to 12.00,8.00 to 9.00,,
COC(=O)N[C@H](C(=O)N1CCC[C@H]1c1ncc(-c2ccc(-c3ccc(-c4cnc([C@@H]5[C@H]6CC[C@H](C6)[C@H]5C(=O)N[C@H](C)c5nccs5)[nH]4)cc3)cc2)[nH]1)C(C)C [AA_279_ENDOA2_B],,10.00 to 12.00,8.00 to 9.00,,

SMILES,CC50 at 3 days [1] [nM],"pEC50 ([2]; Hepatitis C virus, 72 h)","pEC50 ([3]; Hepatitis C virus, 72 h)",pEC50 [3],pEC50 [2]
COC(=O)N[C@H](C(=O)N1CCC[C@H]1c1ncc(-c2ccc(-c3ccc(-c4cnc([C@@H]5[C@H]6CC[C@H](C6)[C@H]5C(=O)NCc5ccc(F)nc5)[nH]4)cc3)cc2)[nH]1)C(C)C [AA_214_ENDOA2],,10.00 to 12.00,8.00 to 9.00,,
COC(=O)N[C@@H](COC(C)(C)C)C(=O)N1CCC[C@H]1c1ncc(-c2ccc(-c3ccc(-c4ccc([C@@H]5CCCN5C(=O)[C@@H](NC(=O)OC)C(C)C)[nH]4)cc3)cc2)[nH]1 [AG_098],,10.00 to 12.00,8.00 to 9.00,,
COC(=O)NN(C(=O)[C@@H]1C2C=CC(C2)C1c1ncc(-c2ccc(-c3ccc(-c4cnc(C5C6C=CC(C6)[C@@H]5C(=O)N(NC(=O)OC)C(C)C)[nH]4)cc3)cc2)[nH]1)C(C)C (some centres unmarked) [AA_034],,7.00 to 8.00,7.00 to 8.00,,
COC(=O)N[C@H](C(=O)N1CCC[C@H]1c1ncc(-c2ccc(-c3ccc(-c4cnc([C@@H]5[C@H]6CC[C@H](C6)[C@H]5C(=O)NN5CC[C@@H](C)C5=O)[nH]4)cc3)cc2)[nH]1)C(C)C [AA_295_ENDOA2_A],,9.00 to 10.00,7.00 to 8.00,,
COC(=O)NN(C(=O)C1=C(c2ncc(-c3ccc(-c4ccc(-c5cnc(C6=C(C(=O)N(NC(=O)OC)C(C)C)CCC6)[nH]5)cc4)cc3)[nH]2)CCC1)C(C)C [AA_033],,7.00 to 8.00,7.00 to 8.00,,
COC(=O)N[C@H](C(=O)N1CCC[C@H]1c1ncc(-c2ccc(-c3ccc(-c4[nH]c([C@@H]5CCCN5C(=O)[C@@H](NC(=O)OC)C(C)C)c5c4OCC5)cc3)cc2)[nH]1)C(C)C [AG_114_A],,,,7.00 to 8.00,9.00 to 10.00
COC(=O)N[C@H](C(=O)N1CCC[C@H]1c1ncc(-c2ccc(-c3ccc(-c4cnc([C@@H]5[C@H]6CC[C@H](C6)[C@H]5C(=O)N[C@@H](C)c5cccnc5F)[nH]4)cc3)cc2)[nH]1)C(C)C [AA_283_ENDOA2_B],,10.00 to 12.00,10.00 to 12.00,,
COC(=O)N[C@H](C(=O)N1CCC[C@H]1c1ncc(-c2ccc(-c3ccc(-c4cnc([C@@H]5[C@H]6CC[C@H](C6)[C@H]5C(=O)NCc5nccn5C)[nH]4)cc3)cc2)[nH]1)C(C)C [AA_288_ENDOA2],,10.00 to 12.00,8.00 to 9.00,,
COC(=O)N[C@H](C(=O)N1CCC[C@H]1c1ncc(-c2ccc(-c3ccc(-c4cnc([C@@H]5[C@H]6CC[C@H](C6)[C@H]5C(=O)N[C@H](C(=O)NCc5cccnc5)C(C)C)[nH]4)cc3)cc2)[nH]1)C(C)C [AA_296_ENDOA2],,9.00 to 10.00,8.00 to 9.00,,
COC(=O)N[C@H](C(=O)N1CCC[C@H]1c1ncc(-c2ccc(-c3ccc(-c4cnc([C@@H]5[C@H]6CC[C@H](C6)[C@H]5C(=O)NN5CCCC5=O)[nH]4)cc3)cc2)[nH]1)C(C)C [AA_294_ENDOA2],,10.00 to 12.00,7.00 to 8.00,,
COC(=O)N[C@H](C(=O)N1CCC[C@H]1c1ccc(-c2ccc(-c3ccc(-c4cnc([C@@H]5CCCN5C(=O)[C@@H](NC(=O)OC)[C@@H](C)O)[nH]4)cc3)cc2)[nH]1)C(C)C [AG_099],,9.00 to 10.00,8.00 to 9.00,,
COC(=O)N[C@H](C(=O)N1CCC[C@H]1c1ncc(-c2ccc(-c3ccc(-c4cnc([C@@H]5[C@H]6CC[C@H](C6)[C@H]5C(=O)NC(C)c5cncnc5)[nH]4)cc3)cc2)[nH]1)C(C)C (some centres unmarked) [AA_292_ENDOA2_M],,9.00 to 10.00,8.00 to 9.00,,
COC(=O)N[C@H](C(=O)N1CCC[C@H]1c1ncc(-c2ccc(-c3ccc(-c4cnc([C@@H]5[C@H]6CC[C@H](C6)[C@H]5C(N)=O)[nH]4)cc3)cc2)[nH]1)C(C)C [AA_284_ENDOA2],,10.00 to 12.00,7.00 to 8.00,,
COC(=O)N[C@H](C(=O)N1CCC[C@H]1c1ncc(-c2ccc(-c3ccc(-c4cnc([C@@H]5[C@H]6CC[C@H](C6)[C@H]5C(=O)NNC(C)=O)[nH]4)cc3)cc2)[nH]1)C(C)C [AA_289_ENDOA2],,9.00 to 10.00,7.00 to 8.00,,
COC(=O)CNC(=O)[C@H](NC(=O)[C@@H]1[C@@H]2CC[C@@H](C2)[C@H]1c1ncc(-c2ccc(-c3ccc(-c4cnc([C@@H]5CCCN5C(=O)[C@@H](NC(=O)OC)C(C)C)[nH]4)cc3)cc2)[nH]1)C(C)C [AA_290_ENDOA2],,9.00 to 10.00,7.00 to 8.00,,

# From patent US10160771B2, “Hepatitis C virus inhibitors and uses thereof in preparation of drugs” (priority 2014, dated 2018)
